Where a name gives a salt, the structure may show the parent alone. Read-outs that look alike come from different tables or passages of the source. Each block holds one molecule with its values, some of them ahead of it.
Key:
[1] = cited from earlier work
[2] = dog, in vivo, iv, 12.5 mg/kg
Description: (§1) Formal toxicology studies of intravenously administered isatoribine and orally administered isatoribine and val-isatoribine were conducted in beagle dogs.
(§2) In each case the compound was administered as a solution, by gavage or by intravenous infusion. Multiple parameters were assessed, as is customary in a toxicology study. In the studies providing higher potential exposure to isatoribine, the plasma concentration of isatoribine was assessed by a LC/MS method.

[3] = system: Interferon Alpha (Mu-IFN-α); assay: Murine interferon alpha (Mu-IFN-α) in plasma of mice after oral dosing; assay type: in vivo; details: for mice with detectable interferon in plasma, of the mice used: mice of Tables 1, 2 and 3, oral dosing
Description: The normal mouse provides a useful system for the assessment of the degree to which the inventions described herein provide material improvement in the oral delivery of 1 (isatoribine). Not only can one measure the plasma concentrations of isatoribine arising from oral administration of the said prodrug(s) but also the extensive immunological research conducted in the mouse has provided reagents suitable for measuring the levels of interferon alpha, a cytokine of interest reflecting one of the desired biologic activities of isatoribine. […] Table 1 records the results of an assay for murine interferon alpha in the plasma of mice that were dosed two times with isatoribine, formulated in bicarbonate, at a level of 50 mg/kg by the oral route. […] Table 2 records the results of assays for murine interferon alpha in the plasma of mice that first were dosed with bicarbonate and then four hours later were dosed orally with isatoribine, formulated in bicarbonate, at a level of 50 mg/kg. Interferon was reported in the plasma from four mice, including two that had received the bicarbonate vehicle dose. […] Table 3 records the results of assays for murine interferon alpha in the plasma of mice that were dosed orally with val-isatoribine, dissolved in bicarbonate, at a dose that is equivalent to 50/mg/kg of isatoribine on a molar basis. […] Interferon was detected in all mice assayed at a given time point, indicating the reliability of the effect following val-isatoribine administration. […] The data tabulated in Tables 1, 2, and 3 may be also considered from the point of view of the incidence of measurable interferon levels.

[4] = Toxicology studies in dogs: GI tolerance (emesis, loose stool, GI lesions) and isatoribine exposure
Description: as §1, §2

Caco-2 cells = details: human
Description: In vitro drug transport assays using differentiated and P-glycoprotein-expressing Caco2 cell monolayers are widely used to predict absorption rates of candidate drug compounds across the intestinal epithelial cell barrier. See, e.g., Hilgers, A. R. et al., Pharm.
Caco-2 cells (obtained from ATCC) are grown to confluency on permeable membranes in chambers allowing access to both the apical and basolateral sides of the membrane. The intact nature of the resulting cellular membrane is assessed using transepithelial electrical resistance. The test compound is added at a known concentration to the apical side of the membrane and the rate of appearance of the compound on the basolateral side of the membrane is assessed by analysis using either HPLC or LC-MS/MS.

[5] = system: Cynomolgus monkey hepatocytes; details: 2 h, 10 μm/ml
Description: Hepatocyes often are used to assess the degree to which a compound may be transformed in the body of an animal, and it is known that such transformations may vary with hepatocytes from different species in a way that reflects metabolism in the whole animal.
Cynomolgus monkey hepatocytes were purchased from a commercial supplier and used within 48 hours of preparation. Compounds were prepared in culture media at a concentration of 10 μm/ml and incubated in a standard system with 1,000,000 viable hepatocytes per ml for 2 hours at 37 degrees. The extent of conversion at the end of the incubation period was assessed by measuring 1 by LC-MS/MS.

[6] = Systemic exposure to isatoribine after oral administration to beagle dogs (plasma HPLC-MS/MS); assay type: in vivo; details: at both 10 and 50 mg/kg dose
Description: The effect of a prodrug (val-isatoribine, 3) on the systemic exposure to isatoribine (1) after oral administration to beagle dogs was investigated. Isatoribine was prepared in sodium bicarbonate solution.
Four male and four female adult beagle dogs weighing between 15 to 27 kg and approximately 1-2 years old were used at the beginning of the study. The animals were divided into 2 groups of 2 males and 2 females each. The test material was administered by gavage on Days 1 and 8, allowing a 7-day washout period between administrations. Blood samples (2 mL) were collected from each animal at predose, 15, 30 minutes, 1, 2, 3, 4, 6, 8 and 10 hours into lithium heparin tubes after each dosing. The plasma was frozen at −70° C. until analysis. The plasma was analyzed for isatoribine by an HPLC-MS/MS assay.
The ratios for the key pharmacokinetic parameters defining the maximum concentration (Cmax) and total exposure as measured by the area under the time-concentration curve (AUC) for the prodrug and the bicarbonate solution at the 50 mg/kg dose are summarized in Table 6.

[7] = dogs, oral isatoribine, 2.5 mg/kg isatoribine equivalent applied dose
[8] = IV isatoribine, 25 mg/kg applied dose
[9] = oral val-isatoribine, 8.1 mg/kg isatoribine equivalent applied dose
[10] = oral val-isatoribine, 16 mg/kg isatoribine equivalent applied dose
[11] = oral val-isatoribine, 32 mg/kg isatoribine equivalent applied dose
[12] = oral val-isatoribine, 64 mg/kg isatoribine equivalent applied dose

Structure (SMILES): Nc1nc2c(sc(=O)n2[C@@H]2O[C@H](CO)[C@@H](O)[C@H]2O)c(=O)[nH]1 [Compound 1, 5-amino-3-β-D-ribofuranosylthiazolo[4,5-d]pyrimidine-2,7-dione, reference compound]
Emesis or loose stool [1, 7]: Neg. | GI lesions or irritation [1, 7]: Neg. | GI lesions or irritation ([1]; dogs, oral isatoribine, 5 mg/kg isatoribine equivalent applied dose): Neg. | dogs with multiple, scattered red lesions on the intestinal mucosa (gross histopathologic evaluation) ([1]; orally administered isatoribine at 10 mg/kg): four of eight dogs | Emesis or loose stool [2]: Neg. | GI lesions or irritation [2]: Neg. | interferon in plasma (result in words) ([3]; mice dosed two times with isatoribine in bicarbonate, 50 mg/kg oral, interval of four hours): no interferon was measurable | mice with detectable interferon in plasma, of the mice used [3]: 4 of the 114 | Emesis or loose stool [4, 8]: Neg. | GI lesions or irritation [4, 8]: Neg. | GI lesions or irritation ([4]; IV isatoribine, 50 mg/kg applied dose): Neg. | GI lesions or irritation ([4]; IV isatoribine, 100 mg/kg applied dose): Neg. | GI tract lesions at necropsy or histopathologic evaluation (result in words) ([4]; intravenously administered isatoribine): No lesions were seen in the GI tract

Caco2 transport compared with 79 (result in words) (Caco-2 cells): significantly improved transport over 79 | Monkey Hepatocytes [5]: 20%
Structure (SMILES): CC(=O)OC[C@H]1O[C@@H](n2c(=O)sc3cnc(N)nc32)[C@H](OC(C)=O)[C@@H]1OC(C)=O [Compound 78, 5-Amino-3-(2′,3′,5′-tri-O-acetyl-β-D-ribofuranosyl)-3H-thiazolo[4,5-d]pyrimidin-2-one]
conversion to 1 compared with 79 (result in words) [5]: more extensively converted to 1 than is 79

melting point: 166 to 168 °C (dec.)
Structure (SMILES): CC(C)[C@H](N)C(=O)OC[C@H]1O[C@@H](n2c(=O)sc3c(O)nc(N)nc32)[C@H](O)[C@@H]1O (as salt: hydrochloride) [Compound 3, 5-Amino-3-(5′-O-L-valinyl-β-D-ribofuranosyl)thiazolo[4,5-d]pyrimidine-2,7-dione Dihydrochloride]

melting point: > 112 °C
Structure (SMILES): CN(C)c1nc(N)nc2c1sc(=O)n2[C@@H]1O[C@H](CO)[C@@H](O)[C@H]1O [Compound 20, 5-Amino-7-dimethylamino-3-β-D-ribofuranosylthiazolo[4,5-d]pyrimidin-2-one]

Caco2 transport compared with 79 (result in words) (Caco-2 cells): significantly improved transport over 79 | Monkey Hepatocytes [5]: 45%
Structure (SMILES): CC(=O)O[C@@H]1[C@H](OC(C)=O)[C@@H](CO)O[C@H]1n1c(=O)sc2cnc(N)nc21 [Compound 89, 5-Amino-3-(2′,3′-di-O-acetyl-β-D-ribofuranosyl)-3H-thiazolo[4,5-d]pyrimidin-2-one]
conversion to 1 compared with 79 (result in words) [5]: more extensively converted to 1 than is 79

melting point: 220 °C (dec.) | Monkey Hepatocytes [5]: 10%
Structure (SMILES): Nc1ncc2sc(=O)n([C@@H]3O[C@H](CO)[C@@H](O)[C@H]3O)c2n1 [Compound 79, 5-Amino-3-β-D-ribofuranosyl-3H-thiazolo-[4,5-d]pyrimidin-2-one]

melting point: > 108 °C (dec.)
Structure (SMILES): Nc1nc(NC2CCCC2)c2sc(=O)n([C@@H]3O[C@H](CO)[C@@H](O)[C@H]3O)c2n1 [Compound 22, 5-Amino-7-cyclopentylamino-3-β-D-ribofuranosylthiazolo[4,5-d]pyrimidin-2-one]

melting point: > 155 °C (dec.)
Structure (SMILES): Nc1nc(N)c2sc(=O)n([C@@H]3O[C@H](CO)[C@@H](O)[C@H]3O)c2n1 [Compound 15, 5,7-Diamino-3-β-D-ribofuranosylthiazolo[4,5-d]pyrimidin-2-one]

melting point: > 112.4 °C (dec.)
Structure (SMILES): Nc1nc(N2CCCC2)c2sc(=O)n([C@@H]3O[C@H](CO)[C@@H](O)[C@H]3O)c2n1 [Compound 23, 5-Amino-7-pyrrolidino-3-β-D-ribofuranosylthiazolo[4,5-d]pyrimidin-2-one]

maximum concentrations of isatoribine after oral dosing compared to isatoribine itself [6]: at least doubled
Structure (SMILES): CC(C)[C@H](N)C(=O)OC[C@H]1O[C@@H](n2c(=O)sc3c(O)nc(N)nc32)[C@H](O)[C@@H]1O [Compound 3, 5-Amino-3-(5′-O-L-valinyl-β-D-ribofuranosyl)thiazolo[4,5-d]pyrimidine-2,7-dione Dihydrochloride]
interferon in plasma (result in words) ([3]; mice dosed orally with val-isatoribine in bicarbonate, equivalent to 50 mg/kg isatoribine): interferon was readily measurable at 1.0 hour, 1.5 hours, and 2.0 hours after dosing | mice with detectable interferon in plasma, of the mice used [3]: 10 of the 30 | increase of the magnitude of both the average and peak interferon response over isatoribine ([3]; mice, oral dosing, Tables 1-3): twofold | Emesis or loose stool [4, 9]: Neg. | GI lesions or irritation [4, 9]: Neg. | Emesis or loose stool [4, 10]: Neg. | GI lesions or irritation [4, 10]: Neg. | Emesis or loose stool [4, 11]: Neg. | GI lesions or irritation [4, 11]: Neg. | Emesis or loose stool [4, 12]: Neg. | GI lesions or irritation [4, 12]: Neg. | GI lesions or irritation ([4]; oral val-isatoribine, 130 mg/kg isatoribine equivalent applied dose): Neg. | GI lesions or irritation ([4]; oral val-isatoribine, 260 mg/kg isatoribine equivalent applied dose): Neg. | GI lesions or irritation ([4]; oral val-isatoribine, 390 mg/kg isatoribine equivalent applied dose): Neg. | GI lesions (result in words) ([4]; orally administered val-isatoribine): No GI lesions were found

melting point: > 160 °C (dec.)
Structure (SMILES): COc1nc(N)nc2c1sc(=O)n2[C@@H]1O[C@H](CO)[C@@H](O)[C@H]1O [Compound 14, 5-Amino-3-β-D-ribofuranosyl-7-methoxy-thiazolo[4,5-d]pyrimidin-2-one]

melting point: > 108 °C
Structure (SMILES): CNc1nc(N)nc2c1sc(=O)n2[C@@H]1O[C@H](CO)[C@@H](O)[C@H]1O [Compound 18]

melting point: > 180 °C (dec.)
Structure (SMILES): CN[C@H](C(=O)OC[C@H]1O[C@@H](n2c(=O)sc3c(O)nc(N)nc32)[C@H](O)[C@@H]1O)C(C)C (as salt: hydrochloride) [Compound 11, 5-Amino-3-(5′-O-[α-L-N-methylvalinyl]-β-D-ribofuranosyl)thiazolo[4,5-d]pyrimidine-2,7-dione Hydrochloride]

From patent publication US7943759B2, “3-β-D-ribofuranosylthiazolo[4-5-d]pyrimidine nucleosides and uses thereof” (Anadys Pharmaceuticals, Inc., priority 2001, dated 2011)
